According to patent US20260140098A1, “METHOD FOR TREATING PLASMA SAMPLE CONTAINING (7aS,2'S)-2-OXO-CLOPIDOGREL AND METHOD FOR DETERMINING THE SAME” (CHENGDU SHIBEIKANG BIOMEDICAL TECHNOLOGY CO., LTD., priority 2021, published 2026):
Where two headings read alike, the source gives them in different places.

Test: Stability of (7aS,2′S)-2-oxo-clopidogrel in plasma, screening of TCEP dosage (Example 4)
Assay type: in vitro ADME
Details: for recovery at 0 min, 0.1 ng/mL / recovery at 30 min, 0.1 ng/mL / recovery at 60 min, 0.1 ng/mL / recovery at 120 min, 0.1 ng/mL: theoretical 0.1 ng/mL; for recovery at 0 min, 0.1 ng/mL / recovery at 30 min, 0.1 ng/mL / recovery at 60 min, 0.1 ng/mL / recovery at 120 min, 0.1 ng/mL / recovery at 0 min, 12 ng/mL / recovery at 30 min, 12 ng/mL / recovery at 60 min, 12 ng/mL / recovery at 120 min, 12 ng/mL: read-out: Recovery rate; for recovery at 0 min, 12 ng/mL / recovery at 30 min, 12 ng/mL / recovery at 60 min, 12 ng/mL / recovery at 120 min, 12 ng/mL: theoretical 12.0 ng/mL
Protocol: S2. Plasma sample pre-treatment: taking 100 μl of the plasma, adding 5 μl of an internal standard working solution and 300 μl of acetonitrile respectively; after vortex mixing, centrifuging at 2-8° C. and 10,000 r/min for 10 min, and collecting the supernatant for later use.
S3. LC-MS/MS analysis: injecting 10 μl of the supernatant prepared from step S2 for determination, where the liquid chromatography conditions are: • the chromatographic column is Kinetex® 1.7 μm C18 100 A 100×2.1 mm; the column temperature is 40° C.; the mobile phase is acetonitrile-0.2% aqueous formic acid solution with a flow rate of 0.2 ml/min; and a gradient elution is carried out as specified in the table below:
ESI ion source, positive ion detection in multiple reaction monitoring mode (MRM); the quantitatively analyzed ions (7aS,2′S)-2-oxo-clopidogrel: m/z 338.100→155.000, IS: m/z 341.100→158.000, a capillary voltage of 4.0 KV, a cone voltage of 25 V, a desolvation gas temperature of 400° C. and a source temperature of 150° C. The optimal collision energy is 20 eV.
Blank plasma was taken and TCEP was added to prepare plasma containing TCEP at different concentrations (10, 50, 100 mg/ml). Subsequently, standard series solution of (7aS,2′S)-2-oxo-clopidogrel was added separately to prepare quality control samples with two concentrations of (7aS,2′S)-2-oxo-clopidogrel (0.1 and 12.0 ng/ml), 3 samples for each concentration. They were placed at room temperature and on ice, respectively, and the plasma samples at different placing time points were taken to examine the stability by pre-treating the plasma samples according to the method of S2 of Example 1, followed by LC/MS/MS determination according to the method of S3.

[1] = plasma containing TCEP 10 mg/ml, TCEP 10 mg/ml, on ice
[2] = plasma containing TCEP 10 mg/ml, TCEP 10 mg/ml, room temperature
[3] = plasma without TCEP, No TCEP, on ice
[4] = plasma without TCEP, No TCEP, room temperature
[5] = plasma, TCEP 50 mg/ml, room temperature
[6] = plasma, TCEP 100 mg/ml, room temperature

COC(=O)[C@H](c1ccccc1Cl)N1CC[C@@H]2SC(=O)C=C2C1 [(7aS,2′S)-2-oxo-clopidogrel, methyl(S)-2-(2-chlorophenyl)-2-((S)-2-oxo-2,6,7,7a-tetrahydrothieno[3,2-c]pyridin-5 (4H)-yl)acetate]
Stability in plasma (in words) (on ice compared with room temperature): more stable when placed on ice than at room temperature | recovery at 0 min, 0.1 ng/mL [1]: 96.5% | recovery at 30 min, 0.1 ng/mL [1]: 94.2% | recovery at 60 min, 0.1 ng/mL [1]: 86.3% | recovery at 120 min, 0.1 ng/mL [1]: 78.2% | recovery at 0 min, 0.1 ng/mL [2]: 96.5% | recovery at 30 min, 0.1 ng/mL [2]: 95.2% | recovery at 60 min, 0.1 ng/mL [2]: 83.3% | recovery at 120 min, 0.1 ng/mL [2]: 72.9% | recovery at 0 min, 12 ng/mL [1]: 102% | recovery at 30 min, 12 ng/mL [1]: 99.2% | recovery at 60 min, 12 ng/mL [1]: 88.8% | recovery at 120 min, 12 ng/mL [1]: 82.7% | recovery at 0 min, 12 ng/mL [2]: 102% | recovery at 30 min, 12 ng/mL [2]: 97.5% | recovery at 60 min, 12 ng/mL [2]: 86.7% | recovery at 120 min, 12 ng/mL [2]: 78.8% | recovery at 0 min, 0.1 ng/mL (plasma containing TCEP 50 mg/ml, TCEP 50 mg/ml, room temperature): 96.5% | Stability in plasma (in words) (plasma samples without TCEP): degraded fast | recovery at 0 min, 0.1 ng/mL [3]: 96.5% | recovery at 30 min, 0.1 ng/mL [3]: 84.2% | recovery at 60 min, 0.1 ng/mL [3]: 76.3% | recovery at 120 min, 0.1 ng/mL [3]: 62.2% | recovery at 30 min, 0.1 ng/mL [4]: 78.2% | recovery at 60 min, 0.1 ng/mL [4]: 63.3% | recovery at 120 min, 0.1 ng/mL [4]: 52.9% | recovery at 0 min, 12 ng/mL [3]: 102% | recovery at 30 min, 12 ng/mL [3]: 85.8% | recovery at 60 min, 12 ng/mL [3]: 80.4% | recovery at 120 min, 12 ng/mL [3]: 60.3% | recovery at 0 min, 12 ng/mL [4]: 102% | recovery at 30 min, 12 ng/mL [4]: 78.8% | recovery at 60 min, 12 ng/mL [4]: 69.8% | recovery at 120 min, 12 ng/mL [4]: 54.8% | recovery at 0 min, 0.1 ng/mL (plasma, No TCEP, room temperature): 96.5% | recovery at 0 min, 0.1 ng/mL (plasma, TCEP 50 mg/ml, on ice): 96.5% | recovery at 30 min, 0.1 ng/mL (plasma, TCEP 50 mg/ml, on ice): 95.6% | recovery at 60 min, 0.1 ng/mL (plasma, TCEP 50 mg/ml, on ice): 93.2% | recovery at 120 min, 0.1 ng/mL (plasma, TCEP 50 mg/ml, on ice): 91.1% | recovery at 30 min, 0.1 ng/mL [5]: 93.5% | recovery at 60 min, 0.1 ng/mL [5]: 91.4% | recovery at 120 min, 0.1 ng/mL [5]: 89.5% | recovery at 0 min, 12 ng/mL (plasma, TCEP 50 mg/ml, on ice): 102% | recovery at 30 min, 12 ng/mL (plasma, TCEP 50 mg/ml, on ice): 102% | recovery at 60 min, 12 ng/mL (plasma, TCEP 50 mg/ml, on ice): 99.2% | recovery at 120 min, 12 ng/mL (plasma, TCEP 50 mg/ml, on ice): 95% | recovery at 0 min, 12 ng/mL [5]: 102% | recovery at 30 min, 12 ng/mL [5]: 101% | recovery at 60 min, 12 ng/mL [5]: 99.2% | recovery at 120 min, 12 ng/mL [5]: 88.3% | recovery at 0 min, 0.1 ng/mL (plasma, TCEP 100 mg/ml, on ice): 96.5% | recovery at 30 min, 0.1 ng/mL (plasma, TCEP 100 mg/ml, on ice): 95.8% | recovery at 60 min, 0.1 ng/mL (plasma, TCEP 100 mg/ml, on ice): 94.2% | recovery at 120 min, 0.1 ng/mL (plasma, TCEP 100 mg/ml, on ice): 95.1% | recovery at 0 min, 0.1 ng/mL [6]: 96.5% | recovery at 30 min, 0.1 ng/mL [6]: 95.5% | recovery at 60 min, 0.1 ng/mL [6]: 93.4% | recovery at 120 min, 0.1 ng/mL [6]: 91.5% | recovery at 0 min, 12 ng/mL (plasma, TCEP 100 mg/ml, on ice): 102% | recovery at 30 min, 12 ng/mL (plasma, TCEP 100 mg/ml, on ice): 103% | recovery at 60 min, 12 ng/mL (plasma, TCEP 100 mg/ml, on ice): 101% | recovery at 120 min, 12 ng/mL (plasma, TCEP 100 mg/ml, on ice): 98.3% | recovery at 0 min, 12 ng/mL [6]: 102% | recovery at 30 min, 12 ng/mL [6]: 102% | recovery at 60 min, 12 ng/mL [6]: 99.2% | recovery at 120 min, 12 ng/mL [6]: 96.7%
